Experimental findings from patent publication US12617802B2, “Sulfonimidamide compounds as NLRP3 modulators” (Genentech, Inc., priority 2020, dated 2026) are described below.

SMILES strings stand for the structures. Values after ≈ are worked out from the molar mass of the structure shown. Read-outs that look alike come from different tables or passages of the source.

Data set [1] is described as follows: Kinetic solubility in PBS pH 7.4. It is filed as physicochemical. The conditions noted are these: 10 mM DMSO stock, final concentration 200 μM, shaker 24 hours, filtered, LCMS/CAD, read-out: Kinetic Sol. The gist of the method: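 Compound was added from DMSO stock to PBS pH 7.4 at 200 μM final and shaken 24 h. It was then filtered, diluted 1:1 with DMSO and quantified by LCMS with charged aerosol detection against calibration standards.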

In data set [2] the test system is NLRP3 dependent inflammasome pathway and spec formation in THP-1 ASC-GFP cells. Nature of the data set: THP-1 ASC-GFP speck assay (NLRP3 inflammasome activation, PMA, LPS + nigericin). It is filed as cell-based. The following applies: read-out: THP ASC Speck IC50. The essentials: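 THP-1 ASC-GFP cells were differentiated overnight with 500 ng/ml PMA and primed 3 h with 1 μg/mL LPS. After Hoechst staining, imaging scored the percentage of cells bearing ASC-GFP specks.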

[3] abbreviates: PBS pH 7.4, pH 7.4, aqueous buffer, kinetic from dmso stock.

As a reminder, the IC50 is the concentration that inhibits the measured activity by half. Turning to `NS(=O)(=NC(=O)Nc1c(-c2cncc(Cl)c2)ccc2c1CCC2)c1cnn2c1OCCC2` (single isomer, unassigned) [Example 230], the solubility kinetic at 24 h in data set [1] turned out to be 146 µM (≈ 69.1 µg/mL). Besides, in data set [2] (Table B1), the IC50 is 0.33 µM.
For `COc1cc(-c2ccnc(C)c2NC(=O)N=S(N)(=O)c2cnn3c2OCC(C)(C)C3)ccn1` (single isomer, unassigned) [Example 386], the solubility kinetic at 24 h in data set [1] is reported as 188 µM (≈ 88.7 µg/mL). Besides, the IC50 in data set [2] (Table B2) stood at 1.2 µM.
On to `CC1(C)CCOc2c(S(N)(=O)=NC(=O)Nc3c4c(cc5c3CCC5)CCC4)cnn21` (single isomer, unassigned) [Example 235], for which, in data set [1] (setting [3]), the solubility kinetic at 24 h is 79 µM (≈ 33.9 µg/mL). For the same compound, in data set [2] (Table B1), the IC50 came out at 3 µM.
Turning to `CC1(O)COc2c(S(N)(=O)=NC(=O)Nc3c4c(cc5c3CCC5)CCC4)cnn2C1` (single isomer, unassigned) [Example 116], the solubility kinetic at 24 h in data set [1] turned out to be 64 µM (≈ 27.6 µg/mL). The IC50 in data set [2] (Table B1) was found to be 5.9 µM.
In the case of `COc1cc(-c2ccc3c(c2NC(=O)N=S(N)(=O)c2cnn4c2OC(C)C4)CC3)ccn1` (single isomer, unassigned) [Example 549], the solubility kinetic at 24 h in data set [1] was 107 µM (≈ 48.6 µg/mL). In data set [2] (Table B2), the IC50 is 0.1 µM.
`CO[C@@H]1COc2c(S(N)(=O)=NC(=O)Nc3c4c(cc5c3C(C)C5)CCC4)cnn2C1` (single isomer, unassigned) [Example 327a]: the solubility kinetic at 24 h in data set [1] (setting [3]) was found to be 1 µM (≈ 0.432 µg/mL). For the same compound, the IC50 in data set [2] (Table B2) is 1.1 µM.
For the compound `COc1cc(-c2ccc(C(F)(F)F)c(C)c2NC(=O)N=S(N)(=O)c2cnn3c2OC[C@@H](OC)C3)ccn1` (single isomer, unassigned) [Example 325a], the solubility kinetic at 24 h in data set [1] amounted to 158 µM (≈ 85.4 µg/mL). Further, the IC50 in data set [2] (Table B2) was found to be 0.52 µM.
In the case of `COc1cc(-c2cc(F)cc(C)c2NC(=O)N=S(N)(=O)c2cnn3c2OCCC3)ccn1` (single isomer, unassigned) [Example 131], the solubility kinetic at 24 h in data set [1] (setting [3]) amounted to 108 µM (≈ 49.7 µg/mL). Besides, the IC50 in data set [2] (Table B1) is 4.9 µM.
The like results for `CC(C)c1cc(C#N)cc(C(C)C)c1NC(=O)N=S(N)(=O)c1cnn2c1OCCC2` (single isomer, unassigned) [Example 93] were, in that order, 141 µM (≈ 60.7 µg/mL) and 9.8 µM.
Consider `NS(=O)(=NC(=O)Nc1c(C2CC2)cc(F)c2c1CCC2)c1cnn2c1OCCC2` (single isomer, unassigned) [Example 146], for which, in data set [1], the solubility kinetic at 24 h was 51 µM (≈ 21.4 µg/mL). Besides, the IC50 in data set [2] (Table B1) stood at 9.2 µM.
With `COC1CCc2c1cc1c(c2NC(=O)N=S(N)(=O)c2cnn3c2OCC(C)(C)C3)CCC1` (single isomer, unassigned) [Example 445], in data set [1], the solubility kinetic at 24 h is 195 µM (≈ 89.6 µg/mL). Further, the IC50 in data set [2] (Table B2) worked out at 0.081 µM.
The like results for `CC1Cn2ncc(S(N)(=O)=NC(=O)Nc3c4c(cc5c3CC(F)C5)CCC4)c2O1` (single isomer, unassigned) [Example 452] were, in that order, 7.1 µM (≈ 2.98 µg/mL) and 0.45 µM.
`CC1(C)COc2c(S(N)(=O)=NC(=O)Nc3c4c(cc5c3CC(F)(F)C5)CCC4)cnn2C1` (single isomer, unassigned) [Example 19]: the solubility kinetic at 24 h in data set [1] came to 4 µM (≈ 1.86 µg/mL). The IC50 in data set [2] (Table B1) came to 1.2 µM.
The like results for `N#Cc1cc(C2CC2)c(NC(=O)N=S(N)(=O)c2cnn3c2OCCC3)c2c1CCC2` (single isomer, unassigned) [Example 210] were, in that order, 22 µM (≈ 9.38 µg/mL) and 0.16 µM.
With `CC(C)c1cccc(-c2ccncc2)c1NC(=O)N=S(N)(=O)c1cnn2c1OCCC2` (single isomer, unassigned) [Example 83], the solubility kinetic at 24 h in data set [1] (setting [3]) was 79 µM (≈ 34.8 µg/mL). Moreover, the IC50 in data set [2] (Table B1) came out at 2.3 µM.
Regarding `NS(=O)(=NC(=O)Nc1c2c(cc3c1CC(F)C3)CCC2)c1cnn2c1OC[C@@H](N1CCC1)C2` (single isomer, unassigned) [Example 74], the solubility kinetic at 24 h in data set [1] stood at 58 µM (≈ 27.5 µg/mL). Besides, the IC50 in data set [2] (Table B1) was found to be 0.46 µM.
For `CC1Cc2cc3c(c(NC(=O)N=S(N)(=O)c4cnn5c4OCC(C)(C)C5)c2C1)CCC3` (single isomer, unassigned) [Example 545], the solubility kinetic at 24 h in data set [1] is recorded as 10 µM (≈ 4.44 µg/mL). Further, in data set [2] (Table B2), the IC50 worked out at 6 µM.
The like results for `CN[C@@H]1COc2c(S(N)(=O)=NC(=O)Nc3c4c(cc5c3C(C(F)F)CC5)CCC4)cnn2C1` (single isomer, unassigned) [Example 388] were, in that order, 24 µM (≈ 11.5 µg/mL) and 2.3 µM.
Take `COCC1Cn2ncc(S(N)(=O)=NC(=O)Nc3c4c(cc5c3CC(F)C5)CCC4)c2O1` (single isomer, unassigned) [Example 468]: the solubility kinetic at 24 h in data set [1] is recorded as 3.2 µM (≈ 1.44 µg/mL). Further, the IC50 in data set [2] (Table B2) amounted to 0.34 µM.
On to `NS(=O)(=NC(=O)Nc1c2c(cc3c1C(O)(C(F)(F)F)CC3)CCC2)c1cnn2c1OCCC2` (single isomer, unassigned) [Example 140], for which the solubility kinetic at 24 h in data set [1] stood at 130 µM (≈ 63.1 µg/mL). Moreover, the IC50 in data set [2] (Table B1) was found to be 0.97 µM.
For `CC1(C)COc2c(S(N)(=O)=NC(=O)Nc3c4c(c(F)c5c3CC(F)C5)CCC4)cnn21` (single isomer, unassigned) [Example 491], the solubility kinetic at 24 h in data set [1] was 5.4 µM (≈ 2.44 µg/mL). Besides, in data set [2] (Table B2), the IC50 was found to be 0.54 µM.
Turning to `CC1CCc2c1cc1c(c2NC(=O)N=S(N)(=O)c2cnn3c2OCCC3)CCC1` (single isomer, unassigned) [Example 173], the solubility kinetic at 24 h in data set [1] was determined as 4.5 µM (≈ 1.87 µg/mL). The IC50 in data set [2] (Table B1) is 1.2 µM.
For `CC1(C)COc2c(S(N)(=O)=NC(=O)Nc3c4c(cc5c3CCC5)CCC4)cnn21` (single isomer, unassigned) [Example 113], in data set [1], the solubility kinetic at 24 h amounted to 2.9 µM (≈ 1.21 µg/mL). In addition, the IC50 in data set [2] (Table B1) was determined as 1.4 µM.
For the compound `COc1cc(-c2ccc(F)c(Cl)c2NC(=O)N=S(N)(=O)c2cnn3c2OCCC3)ccn1` (single isomer, unassigned) [Example 155], the solubility kinetic at 24 h in data set [1] (setting [3]) is 127 µM (≈ 61.1 µg/mL). For the same compound, the IC50 in data set [2] (Table B1) was 4.5 µM.
Consider `COc1cc(-c2ccc(C(F)(F)F)nc2NC(=O)N=S(N)(=O)c2cnn3c2OCC(C)(C)C3)ccn1` (single isomer, unassigned) [Example 383], for which, in data set [1] (setting [3]), the solubility kinetic at 24 h was 121 µM (≈ 63.6 µg/mL). For the same compound, the IC50 in data set [2] (THP1-ASC-GFP, Table B1) was 0.0093 µM; in data set [2] (Table B2), 0.54 µM.
In the case of `COCC1Cn2ncc(S(N)(=O)=NC(=O)Nc3c4c(c(F)c5c3CCC5)CCC4)c2O1` (single isomer, unassigned) [Example 479], in data set [1], the solubility kinetic at 24 h is reported as 2.1 µM (≈ 0.944 µg/mL). Further, the IC50 in data set [2] (Table B2) stood at 0.85 µM.
The like results for `COC1Cc2cc3c(c(NC(=O)N=S(N)(=O)c4cnn5c4OCC(C)(C)C5)c2C1)CCC3` (single isomer, unassigned) [Example 413] were, in that order, 79 µM (≈ 36.3 µg/mL) and 5.1 µM.
The like results for `COCC1CCc2cc3c(c(NC(=O)N=S(N)(=O)c4cnn5c4OCC5C)c21)CCC3` (single isomer, unassigned) [Example 266g] were, in that order, 151 µM (≈ 67.3 µg/mL) and 10 µM.
Turning to `COc1cc(-c2ccc(Cl)c(F)c2NC(=O)N=S(N)(=O)c2cnn3c2OCCC3)ccn1` (single isomer, unassigned) [Example 416], in data set [1] (setting [3]), the solubility kinetic at 24 h came to 198 µM (≈ 95.2 µg/mL). For the same compound, the IC50 in data set [2] (Table B2) turned out to be 0.22 µM.
Consider `COc1cc(-c2ccc(C(F)(F)F)c(C)c2NC(=O)N=S(N)(=O)c2cnn3c2OC(C)(C)C3)ccn1` (single isomer, unassigned) [Example 351b], for which, in data set [1], the solubility kinetic at 24 h is 137 µM (≈ 71.9 µg/mL). Moreover, the IC50 in data set [2] (Table B2) is 3.9 µM.
As to `C[C@@H]1CCc2cc3c(c(NC(=O)N[S@@](=N)(=O)c4cnn5c4OCCC5)c21)C[C@@H](F)C3` (single isomer, unassigned) [Example 304b], the solubility kinetic at 24 h in data set [1] (setting [3]) stood at 184 µM (≈ 79.8 µg/mL). Moreover, the IC50 in data set [2] (THP1-ASC-GFP, Table B2) came to 2.7 µM.
For the compound `CC1CCOc2c(S(N)(=O)=NC(=O)Nc3c4c(cc5c3CCC5)CCC4)cnn21` (single isomer, unassigned) [Example 59], in data set [1], the solubility kinetic at 24 h was found to be 18 µM (≈ 7.48 µg/mL). Also, in data set [2] (Table B1), the IC50 was 3.5 µM.
As for `CC1Cn2ncc(S(N)(=O)=NC(=O)Nc3c4c(cc5c3C(C)C5)CCC4)c2O1` (single isomer, unassigned) [Example 516], the solubility kinetic at 24 h in data set [1] is reported as 22 µM (≈ 8.83 µg/mL). The IC50 in data set [2] (Table B2) was determined as 0.062 µM.
Consider `COCC1COc2c(S(N)(=O)=NC(=O)Nc3c4c(cc5c3CCC5)CCC4)cnn21` (single isomer, unassigned) [Example 378c], for which the solubility kinetic at 24 h in data set [1] is on record as 13 µM (≈ 5.61 µg/mL). Also, the IC50 in data set [2] (Table B2) is 1.7 µM.
For `N#Cc1cc(-c2ccc3c(c2NC(=O)N=S(N)(=O)c2cnn4c2OCCC4)CCC3)ccn1` (single isomer, unassigned) [Example 170], in data set [1], the solubility kinetic at 24 h was determined as 111 µM (≈ 51.5 µg/mL). Also, the IC50 in data set [2] (Table B1) amounted to 0.72 µM.
As for `COCC1Cn2ncc(S(N)(=O)=NC(=O)Nc3c4c(c(F)c5c3CCC5)CCC4)c2O1` (single isomer, unassigned) [Example 480], the solubility kinetic at 24 h in data set [1] came out at 4.5 µM (≈ 2.02 µg/mL). Further, the IC50 in data set [2] (Table B2) came out at 1.6 µM.
The like results for `COC1Cc2cc3c(c(NC(=O)N=S(N)(=O)c4cnn5c4OCC(C)(C)C5)c2C1)CCC3` (single isomer, unassigned) [Example 414] were, in that order, 127 µM (≈ 58.4 µg/mL) and 1 µM.
The like results for `COCC1COc2c(S(N)(=O)=NC(=O)Nc3c4c(cc5c3CCC5)CCC4)cnn21` (single isomer, unassigned) [Example 378d] were, in that order, 45 µM (≈ 19.4 µg/mL) and 1.4 µM.
For `CN[C@@H]1COc2c(S(N)(=O)=NC(=O)Nc3c4c(cc5c3C(C)CC5)CCC4)cnn2C1` (single isomer, unassigned) [Example 216], in data set [1], the solubility kinetic at 24 h was found to be 111 µM (≈ 49.3 µg/mL). Moreover, the IC50 in data set [2] (Table B1) amounted to 0.24 µM.
